# PubChem BioAssay (NCI)
#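 Briefly, cells in 96-well plates were exposed to five compound concentrations for 48 h, and endpoints were estimated by linear interpolation. TGI: total growth inhibition.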
# Assays:
# Assay in all cases: DTP human tumour cell line panel, 48 h
# 786-0 renal = system: 786-0 renal
# A498 renal = system: A498 renal
# A549 NSCLC = system: A549 NSCLC
# ACHN renal = system: ACHN renal
# CAKI-1 renal = system: CAKI-1 renal
# CCRF-CEM leukemia = system: CCRF-CEM leukemia
# COLO 205 colon = system: COLO 205 colon
# DLD-1 colon = system: DLD-1 colon
# DMS 114 small cell lung = system: DMS 114 small cell lung
# DMS 273 small cell lung = system: DMS 273 small cell lung
# EKVX NSCLC = system: EKVX NSCLC
# HCC-2998 colon = system: HCC-2998 colon
# HCT-116 colon = system: HCT-116 colon
# HCT-15 colon = system: HCT-15 colon
# HL-60(TB) leukemia = system: HL-60(TB) leukemia
# HOP-62 NSCLC = system: HOP-62 NSCLC
# HOP-92 NSCLC = system: HOP-92 NSCLC
# IGROV1 ovarian = system: IGROV1 ovarian
# K-562 leukemia = system: K-562 leukemia
# KM12 colon = system: KM12 colon
# KM20L2 colon = system: KM20L2 colon
# LOX IMVI melanoma = system: LOX IMVI melanoma
# LXFL 529 NSCLC = system: LXFL 529 NSCLC
# M14 melanoma = system: M14 melanoma
# M19-MEL melanoma = system: M19-MEL melanoma
# MOLT-4 leukemia = system: MOLT-4 leukemia
# NCI-H23 lung = system: NCI-H23 lung
# NCI-H460 lung = system: NCI-H460 lung
# OVCAR-3 ovarian = system: OVCAR-3 ovarian
# OVCAR-4 ovarian = system: OVCAR-4 ovarian
# OVCAR-8 ovarian = system: OVCAR-8 ovarian
# RPMI-8226 leukemia = system: RPMI-8226 leukemia
# RXF 393 renal = system: RXF 393 renal
# RXF-631 renal = system: RXF-631 renal
# SF-268 CNS = system: SF-268 CNS
# SF-295 CNS = system: SF-295 CNS
# SF-539 CNS = system: SF-539 CNS
# SK-MEL-2 melanoma = system: SK-MEL-2 melanoma
# SK-MEL-28 melanoma = system: SK-MEL-28 melanoma
# SK-MEL-5 melanoma = system: SK-MEL-5 melanoma
# SK-OV-3 ovarian = system: SK-OV-3 ovarian
# SN12C renal = system: SN12C renal
# SNB-19 CNS = system: SNB-19 CNS
# SNB-75 CNS = system: SNB-75 CNS
# SNB-78 CNS = system: SNB-78 CNS
# SR leukemia = system: SR leukemia
# SW-620 colon = system: SW-620 colon
# TK-10 renal = system: TK-10 renal
# U251 CNS = system: U251 CNS
# UACC-257 melanoma = system: UACC-257 melanoma
# UACC-62 melanoma = system: UACC-62 melanoma
# UO-31 renal = system: UO-31 renal
# XF 498 CNS = system: XF 498 CNS
# HOP-18 NSCLC = system: HOP-18 NSCLC
# HT29 colon = system: HT29 colon
# MALME-3M melanoma = system: MALME-3M melanoma
# NCI-H226 lung = system: NCI-H226 lung
# NCI-H522 lung = system: NCI-H522 lung
# OVCAR-5 ovarian = system: OVCAR-5 ovarian
compound,measurement,setting,value
CC1=NN(C(=O)Nc2ccccc2)C(=O)C2CCC(=O)N12 (stereo not drawn),TGI,786-0 renal,> 100 µM
same,TGI,A498 renal,> 100 µM
same,TGI,A549 NSCLC,> 100 µM
same,TGI,ACHN renal,> 100 µM
same,TGI,CAKI-1 renal,> 100 µM
same,TGI,CCRF-CEM leukemia,> 100 µM
same,TGI,COLO 205 colon,> 100 µM
same,TGI,DLD-1 colon,> 100 µM
same,TGI,DMS 114 small cell lung,> 100 µM
same,TGI,DMS 273 small cell lung,> 100 µM
same,TGI,EKVX NSCLC,> 100 µM
same,TGI,HCC-2998 colon,> 100 µM
same,TGI,HCT-116 colon,> 100 µM
same,TGI,HCT-15 colon,> 100 µM
same,TGI,HL-60(TB) leukemia,> 100 µM
same,TGI,HOP-62 NSCLC,> 100 µM
same,TGI,HOP-92 NSCLC,> 100 µM
same,TGI,IGROV1 ovarian,> 100 µM
same,TGI,K-562 leukemia,> 100 µM
same,TGI,KM12 colon,> 100 µM
same,TGI,KM20L2 colon,> 100 µM
same,TGI,LOX IMVI melanoma,> 100 µM
same,TGI,LXFL 529 NSCLC,> 100 µM
same,TGI,M14 melanoma,> 100 µM
same,TGI,M19-MEL melanoma,> 100 µM
same,TGI,MOLT-4 leukemia,> 100 µM
same,TGI,NCI-H23 lung,> 100 µM
same,TGI,NCI-H460 lung,> 100 µM
same,TGI,OVCAR-3 ovarian,> 100 µM
same,TGI,OVCAR-4 ovarian,> 100 µM
same,TGI,OVCAR-8 ovarian,> 100 µM
same,TGI,RPMI-8226 leukemia,> 100 µM
same,TGI,RXF 393 renal,> 100 µM
same,TGI,RXF-631 renal,> 100 µM
same,TGI,SF-268 CNS,> 100 µM
same,TGI,SF-295 CNS,> 100 µM
same,TGI,SF-539 CNS,> 100 µM
same,TGI,SK-MEL-2 melanoma,> 100 µM
same,TGI,SK-MEL-28 melanoma,> 100 µM
same,TGI,SK-MEL-5 melanoma,> 100 µM
same,TGI,SK-OV-3 ovarian,> 100 µM
same,TGI,SN12C renal,> 100 µM
same,TGI,SNB-19 CNS,> 100 µM
same,TGI,SNB-75 CNS,> 100 µM
same,TGI,SNB-78 CNS,> 100 µM
same,TGI,SR leukemia,> 100 µM
same,TGI,SW-620 colon,> 100 µM
same,TGI,TK-10 renal,> 100 µM
same,TGI,U251 CNS,> 100 µM
same,TGI,UACC-257 melanoma,> 100 µM
same,TGI,UACC-62 melanoma,> 100 µM
same,TGI,UO-31 renal,> 100 µM
same,TGI,XF 498 CNS,> 100 µM
O=C(/C=C/c1c(O)ccc2ccccc12)c1cccc(O)c1,TGI,786-0 renal,> 100 µM
same,TGI,A498 renal,> 100 µM
same,TGI,A549 NSCLC,> 100 µM
same,TGI,ACHN renal,> 100 µM
same,TGI,CAKI-1 renal,> 100 µM
same,TGI,CCRF-CEM leukemia,> 100 µM
same,TGI,COLO 205 colon,> 100 µM
same,TGI,DLD-1 colon,> 100 µM
same,TGI,DMS 114 small cell lung,> 77.3 µM
same,TGI,DMS 273 small cell lung,> 100 µM
same,TGI,EKVX NSCLC,> 100 µM
same,TGI,HCC-2998 colon,> 100 µM
same,TGI,HCT-116 colon,> 100 µM
same,TGI,HCT-15 colon,> 100 µM
same,TGI,HL-60(TB) leukemia,> 64.3 µM
same,TGI,HOP-18 NSCLC,> 86.8 µM
same,TGI,HOP-62 NSCLC,> 100 µM
same,TGI,HOP-92 NSCLC,99.5 µM
same,TGI,HT29 colon,> 100 µM
same,TGI,IGROV1 ovarian,> 100 µM
same,TGI,K-562 leukemia,> 100 µM
same,TGI,KM12 colon,> 100 µM
same,TGI,KM20L2 colon,> 100 µM
same,TGI,LOX IMVI melanoma,> 72.1 µM
same,TGI,LXFL 529 NSCLC,> 100 µM
same,TGI,M14 melanoma,> 100 µM
same,TGI,M19-MEL melanoma,33.3 µM
same,TGI,MALME-3M melanoma,> 100 µM
same,TGI,MOLT-4 leukemia,> 100 µM
same,TGI,NCI-H226 lung,> 100 µM
same,TGI,NCI-H23 lung,> 100 µM
same,TGI,NCI-H460 lung,> 100 µM
same,TGI,NCI-H522 lung,> 100 µM
same,TGI,OVCAR-3 ovarian,> 100 µM
same,TGI,OVCAR-4 ovarian,> 100 µM
same,TGI,OVCAR-5 ovarian,> 100 µM
same,TGI,OVCAR-8 ovarian,> 100 µM
same,TGI,RPMI-8226 leukemia,> 100 µM
same,TGI,RXF 393 renal,> 100 µM
same,TGI,SF-268 CNS,> 100 µM
same,TGI,SF-295 CNS,> 100 µM
same,TGI,SF-539 CNS,> 100 µM
same,TGI,SK-MEL-2 melanoma,> 100 µM
same,TGI,SK-MEL-28 melanoma,> 100 µM
same,TGI,SK-MEL-5 melanoma,> 100 µM
same,TGI,SK-OV-3 ovarian,> 100 µM
same,TGI,SN12C renal,> 100 µM
same,TGI,SNB-19 CNS,> 100 µM
same,TGI,SNB-75 CNS,> 100 µM
same,TGI,SNB-78 CNS,> 100 µM
same,TGI,SR leukemia,> 100 µM
same,TGI,SW-620 colon,> 100 µM
same,TGI,TK-10 renal,> 100 µM
same,TGI,U251 CNS,> 100 µM
same,TGI,UACC-257 melanoma,> 100 µM
same,TGI,UACC-62 melanoma,69.1 µM
same,TGI,UO-31 renal,> 100 µM
same,TGI,XF 498 CNS,> 100 µM
C/C(CC(=O)Nc1ccc(C)cc1C)=N/N=C(N)N,TGI,786-0 renal,> 100 µM
same,TGI,A498 renal,> 100 µM
same,TGI,A549 NSCLC,> 100 µM
same,TGI,ACHN renal,> 100 µM
same,TGI,CCRF-CEM leukemia,> 100 µM
same,TGI,COLO 205 colon,> 100 µM
same,TGI,DLD-1 colon,> 100 µM
same,TGI,DMS 114 small cell lung,> 100 µM
same,TGI,DMS 273 small cell lung,> 100 µM
same,TGI,EKVX NSCLC,> 100 µM
same,TGI,HCC-2998 colon,> 100 µM
same,TGI,HCT-116 colon,> 100 µM
same,TGI,HL-60(TB) leukemia,> 100 µM
same,TGI,HOP-62 NSCLC,> 100 µM
same,TGI,HOP-92 NSCLC,> 100 µM
same,TGI,HT29 colon,> 100 µM
same,TGI,IGROV1 ovarian,> 100 µM
same,TGI,K-562 leukemia,> 100 µM
same,TGI,KM12 colon,> 100 µM
same,TGI,KM20L2 colon,> 100 µM
same,TGI,LOX IMVI melanoma,> 100 µM
same,TGI,LXFL 529 NSCLC,> 100 µM
same,TGI,M14 melanoma,> 100 µM
same,TGI,M19-MEL melanoma,> 100 µM
same,TGI,MALME-3M melanoma,> 100 µM
same,TGI,MOLT-4 leukemia,> 100 µM
same,TGI,NCI-H226 lung,> 100 µM
same,TGI,NCI-H23 lung,> 100 µM
same,TGI,NCI-H460 lung,> 100 µM
same,TGI,NCI-H522 lung,> 100 µM
same,TGI,OVCAR-3 ovarian,> 100 µM
same,TGI,OVCAR-5 ovarian,> 100 µM
same,TGI,OVCAR-8 ovarian,> 100 µM
same,TGI,RPMI-8226 leukemia,> 100 µM
same,TGI,RXF 393 renal,> 100 µM
same,TGI,RXF-631 renal,> 100 µM
same,TGI,SF-268 CNS,> 100 µM
same,TGI,SF-295 CNS,> 100 µM
same,TGI,SF-539 CNS,> 100 µM
same,TGI,SK-MEL-2 melanoma,> 100 µM
same,TGI,SK-MEL-28 melanoma,> 100 µM
same,TGI,SK-MEL-5 melanoma,> 100 µM
same,TGI,SK-OV-3 ovarian,> 100 µM
same,TGI,SNB-75 CNS,> 100 µM
same,TGI,SNB-78 CNS,> 100 µM
same,TGI,SW-620 colon,> 100 µM
same,TGI,TK-10 renal,> 100 µM
same,TGI,U251 CNS,> 100 µM
same,TGI,UACC-257 melanoma,> 100 µM
same,TGI,UACC-62 melanoma,> 100 µM
same,TGI,UO-31 renal,> 100 µM
same,TGI,XF 498 CNS,> 100 µM
